In patent US9931379B2, “Oxyntomodulin analogs and methods of making and using same” (The Research Foundation for The State University of New York, priority 2015, dated 2018):
Starred links: 1 amine or outer side, 2 acyl side, 3 side chain; linkers in the order of their positions; H or OH if unused. Positions of bridges follow the written chain, without caps; N, C: chain ends. Non-standard residues stand in square brackets, D forms with d. Residues, ends and D or L forms follow the SMILES beside them. CH2(3,3'-bipyridine-6,6')CH2 = c1cc(C[*:1])ncc1-c1ccc(C[*:2])nc1; Biphenyl(4,4'-CH2)2 = c1cc(-c2ccc(C[*:2])cc2)ccc1C[*:1]

Columns and labels:
GLP-1R = target: T1, GLP-1R (Homo sapiens, UniProt P43220); test: CRE-driven luciferase reporter assay, HEK293 cells overexpressing GLP-1R; type: cell-based
T1 construct: expressed in transfected cells
Description: (§1) The surviving cells (referred to as CRE-HEK293) were expanded and then transfected with a G418 selective mammalian expression plasmid encoding human GCGR or GLP-1R, followed by geneticin selection (Life technologies, Carlsbad, Calif.). Single-colony stable cell lines expressing both CRE-luciferase and GCGR/GLP-1R were then established for in vitro activity assays.
(§2) HEK293-GCGR-CRE and HEK293-GLP-1R-CRE cells were seeded in a white 384-well plate at a density of 5,000 cells per well and cultured for 24 hours in DMEM with 10% FBS at 37° C. with 5% CO2. Cells were treated with different peptides in a dose dependent manner. After 24 hours, 10 μL of Bright-Glo reagent (Promega, Madison, Wis.) was added to each well and luminescence was determined using an Envision multilabel plate reader (PerkinElmer, Waltham, Mass.). The EC50 of each peptide was calculated using GraphPad Prism 6 software (GraphPad, San Diego, Calif.).

GCGR = target: T2, GCGR (Homo sapiens, UniProt P47871); test: CRE-driven luciferase reporter assay, HEK293 cells overexpressing GCGR; type: cell-based
T2 construct: expressed in transfected cells
Description: as §1, §2

[1] = In vitro half-life after incubation with freshly isolated mouse serum (GLP-1R activation assay); type: in vitro ADME; conditions: read-out: t1/2 in vitro (converted)
[2] = Far-UV circular dichroism measurement; type: physicochemical; conditions: measure of relative amounts of 310- and α-helix
Description: The sensitivity and scan rate of the spectrophotometer were set to 100 mdeg and 50 nm/min, respectively. All peptides were dissolved in 0.1×PBS to reach final concentrations of 0.2 mg/mL.

[3] = In vivo pharmacokinetic studies in mice; plasma peptide measured by GLP-1R reporter assay; conditions: mouse, 0.3 mg/kg
Description: All animal care and experimental procedures were approved by the Institutional Animal Care and Use Committee (IACUC) of California Institute for Biomedical Research and strictly followed the NIH guidelines for humane treatment of animals. Female CD-1 mice obtained from Charles River Limited were used after overnight food deprivation for in vivo PK studies. Peptides were dissolved in pH adjusted phosphate buffered saline (PBS, pH=7.4). 100 μL of each peptide (0.3 mg/kg) was administered to each mouse by either i.v. or s.c routes. Food was provided to mice immediately after bleeding at 30 minutes. […] The resulting supernatant plasma was then stored at −80° C. for peptide concentration determination. Peptide concentration in the plasma was determined by in vitro GLP1R activation reporter assay.
HEK 293 cells overexpressing GLP1R and CRE-Luc reporter were treated with plasma samples at different time points (5 point dose response, starting from 1:20 dilution of each plasma sample), incubated for 16 hours in DMEM with 10% FBS at 37° C. with 5% CO2, and the firefly luciferase activity was measured. At the same time, injected peptides were used to obtain standard curves and parameters for Bottom, Top, EC50, Hill Slope. Random luciferase unit (RLU) for each plasma sample was used to calculate the peptide concentrations in plasma (nmol/L), using parameters derived from the standard curve (RLU=Bottom+(Top−Bottom)/(1+10^((Log EC50−Conc.)*Hill Slope)). Peptide concentrations in plasma were obtained and plotted against time points to obtain in vivo half-life of each peptide, using WinNonLin Phoenix software (Pharsight Corp, St. Louis, Mo.).

CD1 mice = test: Oral glucose tolerance test (OGTT); type: in vivo; conditions: 10 μg/mice s.c. 4 hours before oral glucose challenge
Description: CD1 mice were fasted overnight and then administered with certain amount of peptides through s.c. injection (10 μg/mice).

[4] = compared to its linear counterpart
[5] = iv, intravenously injected, read-out: elimination half-life (converted)
[6] = sc, administered subcutaneously, read-out: half-life (converted)

T1 sequence (P43220 24-463): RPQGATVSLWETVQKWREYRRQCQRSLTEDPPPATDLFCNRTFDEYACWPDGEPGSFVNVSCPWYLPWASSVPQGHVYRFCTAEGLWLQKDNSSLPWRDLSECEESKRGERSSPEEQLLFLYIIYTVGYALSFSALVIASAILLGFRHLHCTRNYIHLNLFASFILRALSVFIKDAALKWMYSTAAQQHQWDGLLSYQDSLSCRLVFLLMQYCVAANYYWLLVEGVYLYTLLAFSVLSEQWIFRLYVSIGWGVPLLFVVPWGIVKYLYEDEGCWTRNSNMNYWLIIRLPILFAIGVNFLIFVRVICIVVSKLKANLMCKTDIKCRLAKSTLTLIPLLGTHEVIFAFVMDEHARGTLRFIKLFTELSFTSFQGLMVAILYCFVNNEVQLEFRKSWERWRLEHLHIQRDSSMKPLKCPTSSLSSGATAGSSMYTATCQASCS
T2 sequence (P47871 26-477): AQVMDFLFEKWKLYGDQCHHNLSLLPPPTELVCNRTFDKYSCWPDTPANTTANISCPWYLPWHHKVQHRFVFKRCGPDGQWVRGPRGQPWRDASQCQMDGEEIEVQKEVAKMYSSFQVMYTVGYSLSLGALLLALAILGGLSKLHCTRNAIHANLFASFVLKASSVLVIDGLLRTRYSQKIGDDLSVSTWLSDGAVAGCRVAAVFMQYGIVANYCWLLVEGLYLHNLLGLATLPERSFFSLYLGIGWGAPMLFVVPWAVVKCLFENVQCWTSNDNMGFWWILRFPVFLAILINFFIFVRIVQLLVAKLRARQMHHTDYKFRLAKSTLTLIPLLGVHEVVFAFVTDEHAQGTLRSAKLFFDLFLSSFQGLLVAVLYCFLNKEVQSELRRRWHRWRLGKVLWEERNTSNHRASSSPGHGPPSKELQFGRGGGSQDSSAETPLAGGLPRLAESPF

Compound	GLP-1R activation, result in words (GLP-1R; comparison)	GCGR activation, result in words (GCGR; comparison)	half-life [1] [min]	increase in activity toward GLP-1R on crosslinking (GLP-1R; [4]) [fold]	increase in activity toward GCGR on crosslinking (GCGR; [4]) [fold]	ratio of [θ]222/[θ]208 [2]	half-life [3, 5] [min]	half-life [3, 6] [min]	blood glucose levels decreased to (CD1 mice) [%]	greater efficacy in receptor activation (GLP-1R; compared to peptide 9, GLP-1R and GCGR)	decrease of the area under curve (AUC) of blood glucose (CD1 mice) [%]
CC[C@H](C)[C@H](NC(=O)[C@H](CC(N)=O)NC(=O)[C@H](CC(N)=O)NC(=O)[C@H](CCCNC(=N)N)NC(=O)[C@H](CC(N)=O)NC(=O)[C@H](CCCNC(=N)N)NC(=O)[C@H](CCCCN)NC(=O)[C@@H](NC(=O)[C@H](CC(N)=O)NC(=O)[C@H](CCSC)NC(=O)[C@H](CC(C)C)NC(=O)[C@H](Cc1c[nH]c2ccccc12)NC(=O)[C@H](CS)NC(=O)[C@@H](NC(=O)[C@H](Cc1ccccc1)NC(=O)[C@H](CC(=O)O)NC(=O)[C@H](CCC(N)=O)NC(=O)[C@H](C)NC(=O)[C@H](CCCNC(=N)N)NC(=O)[C@H](CS)NC(=O)[C@H](CCC(=O)O)NC(=O)[C@H](CC(=O)O)NC(=O)[C@H](CC(C)C)NC(=O)[C@H](Cc1ccc(O)cc1)NC(=O)[C@H](CCCCN)NC(=O)[C@H](CO)NC(=O)[C@H](Cc1ccc(O)cc1)NC(=O)[C@H](CC(=O)O)NC(=O)[C@H](CO)NC(=O)[C@@H](NC(=O)[C@H](Cc1ccccc1)NC(=O)[C@@H](NC(=O)CNC(=O)[C@H](CCC(N)=O)NC(=O)[C@@H](CO)NC(=O)[C@@H](N)Cc1c[nH]cn1)[C@@H](C)O)[C@@H](C)O)C(C)C)[C@@H](C)O)C(=O)N[C@@H](C)C(N)=O [peptide 5] (H-H[dS]QGTFTSDYSKYLDECRAQDFVCWLMNTKRNRNNIA-NH2)	modest enhancement	modest enhancement	–	–	–	–	–	–	–	–	–
CC[C@H](C)[C@H](NC(=O)[C@H](CC(N)=O)NC(=O)[C@H](CC(N)=O)NC(=O)[C@H](CCCNC(=N)N)NC(=O)[C@H](CC(N)=O)NC(=O)[C@H](CCCNC(=N)N)NC(=O)[C@H](CCCCN)NC(=O)[C@@H](NC(=O)[C@H](CC(N)=O)NC(=O)[C@H](CCSC)NC(=O)[C@H](CC(C)C)NC(=O)[C@H](Cc1c[nH]c2ccccc12)NC(=O)[C@@H]1CSCc2ccc(cc2)-c2ccc(cc2)CSC[C@H](NC(=O)[C@H](CCC(=O)O)NC(=O)[C@H](CC(=O)O)NC(=O)[C@H](CC(C)C)NC(=O)[C@H](Cc2ccc(O)cc2)NC(=O)[C@H](CCCCN)NC(=O)[C@H](CO)NC(=O)[C@H](Cc2ccc(O)cc2)NC(=O)[C@H](CC(=O)O)NC(=O)[C@H](CO)NC(=O)[C@@H](NC(=O)[C@H](Cc2ccccc2)NC(=O)[C@@H](NC(=O)CNC(=O)[C@H](CCC(N)=O)NC(=O)[C@@H](CO)NC(=O)[C@@H](N)Cc2c[nH]cn2)[C@@H](C)O)[C@@H](C)O)C(=O)N[C@@H](C)C(=O)N[C@@H](C)C(=O)N[C@@H](CCCCN)C(=O)N[C@@H](CCC(=O)O)C(=O)N[C@@H](Cc2ccccc2)C(=O)N[C@@H]([C@@H](C)CC)C(=O)N1)[C@@H](C)O)C(=O)N[C@@H](C)C(N)=O [peptide 9] (H-H[dS]QGTFTSDYSKYLDECAAKEFICWLMNTKRNRNNIA-NH2; linker 17-24 via Biphenyl(4,4'-CH2)2)	–	–	780	80	40	~1.0	72	114	40	–	–
CC[C@H](C)[C@H](NC(=O)[C@H](CC(N)=O)NC(=O)[C@H](CC(N)=O)NC(=O)[C@H](CCCNC(=N)N)NC(=O)[C@H](CC(N)=O)NC(=O)[C@H](CCCNC(=N)N)NC(=O)[C@H](CCCCN)NC(=O)[C@@H](NC(=O)[C@H](CC(N)=O)NC(=O)[C@H](CCSC)NC(=O)[C@H](CC(C)C)NC(=O)[C@H](Cc1c[nH]c2ccccc12)NC(=O)[C@@H]1CSCc2ccc(cn2)-c2ccc(nc2)CSC[C@H](NC(=O)[C@H](CCC(=O)O)NC(=O)[C@H](CC(=O)O)NC(=O)[C@H](CC(C)C)NC(=O)[C@H](Cc2ccc(O)cc2)NC(=O)[C@H](CCCCN)NC(=O)[C@H](CO)NC(=O)[C@H](Cc2ccc(O)cc2)NC(=O)[C@H](CC(=O)O)NC(=O)[C@H](CO)NC(=O)[C@@H](NC(=O)[C@H](Cc2ccccc2)NC(=O)[C@@H](NC(=O)CNC(=O)[C@H](CCC(N)=O)NC(=O)[C@@H](CO)NC(=O)[C@@H](N)Cc2c[nH]cn2)[C@@H](C)O)[C@@H](C)O)C(=O)N[C@@H](C)C(=O)N[C@@H](C)C(=O)N[C@@H](CCCCN)C(=O)N[C@@H](CCC(=O)O)C(=O)N[C@@H](Cc2ccccc2)C(=O)N[C@@H]([C@@H](C)CC)C(=O)N1)[C@@H](C)O)C(=O)N[C@@H](C)C(N)=O [peptide 11] (H-H[dS]QGTFTSDYSKYLDECAAKEFICWLMNTKRNRNNIA-NH2; linker 17-24 via CH2(3,3'-bipyridine-6,6')CH2)	–	–	780	–	–	~1.0	84	114	45	3-4 fold	–
exendin-4 [Ex-4, reference compound]	–	–	–	–	–	–	–	–	–	–	30
